Values quoted from earlier work, collected in US12121514B2, “Nonselective metabotropic glutamate receptor activators for treatment of attention deficit disorder and 22Q syndrome” (THE CHILDREN'S HOSPITAL OF PHILADELPHIA, priority 2015, dated 2024).

Key:
[1] = tested on: adenylate cyclase activity through group I, II and III mGluRs; conditions: cited from earlier work
[2] = tested on: group I and group II/III mGluRs; conditions: in vitro studies; cited from earlier work
[3] = tested on: pediatric ADHD subjects; conditions: cited from earlier work

| Structure (SMILES) | adenylate cyclase activity through group I mGluRs [1] | adenylate cyclase activity through group II and III mGluRs [1] | stimulation of mGluRs [2] | ADHD symptoms compared to a placebo control [3] |
| --- | --- | --- | --- | --- |
| O=C1CC[C@H](C(=O)N2CCCCC2)N1 [Fasoracetam, fasoracetam] | may stimulate adenylate cyclase activity | may also inhibit adenylate cyclase activity | can stimulate both group I and group II/III mGluRs |  |
| NC(=O)CN1CCCC1=O [piracetam] |  |  |  | increase ADHD symptoms |
